Measurements as given in patent US4450149A, “Radiohalogenation method” (Research Corporation, priority 1981, dated 1984).
Read-outs that look alike come from different tables or passages of the source.

Experiments:
[1] = Tissue distribution study of radioiodinated fatty acid, 5 min post intravenous injection; format: in vivo, female Sp-raque-Dawley rats; settings: 5 min post injection, approximately 25 μCi, Prepared Via Present Method, average of 5 rats (standard deviation)
Procedure: Tissue Distribution Study The radioiodinated 19-^125 I-iodononadecanoicacid was evaluated in female Sp-raque-Dawley rats weighing 250-350 g. The rats were given food and water ad libidum. For the tissue distribution study, approximately 25 μCi of the fatty acid in a physiological formulation (EtOH/Tween 80/0.9% saline: 2.5 ml/0.65 ml/22 ml) was administered intraveneously to ether anesthetized rats. Five animals were sacrificed at 5 min post injection. Representative 50-100 mg samples of heart, liver, lung, blood, and muscle were removed and cleaned of fat and connective tissue. Samples were counted in an auto-gamma scintillation counter and values corrected for radioactive decay, counting efficiency and background. The resulting tissue concentration values were normalized to a per kilogram body weight and are reported in % kg dose/g. as shown in Table 8.

[2] = reported in J. Nucl. Med., 22:0000, 1981; average of 5 rats (standard deviation); cited from earlier work

tissue concentration, Blood [1]: 0.13 ± 0.00 % kg dose/g | tissue concentration, Heart [1]: 0.71 ± 0.01 % kg dose/g | tissue concentration, Liver [1]: 0.47 ± 0.03 % kg dose/g | tissue concentration, Lung [1]: 0.24 ± 0.02 % kg dose/g | tissue concentration, Muscle [1]: 0.14 ± 0.00 % kg dose/g
Structure (SMILES): O=C(O)CCCCCCCCCCCCCCCCCC[125I] [19-^125 I--iodononadecanoic acid]
tissue concentration, Blood [2]: 0.15 ± 0.01 % kg dose/g | tissue concentration, Heart [2]: 0.88 ± 0.23 % kg dose/g | tissue concentration, Liver [2]: 0.53 ± 0.02 % kg dose/g | tissue concentration, Lung [2]: 0.28 ± 0.04 % kg dose/g | tissue concentration, Muscle [2]: 0.19 ± 0.00 % kg dose/g
